Experimental data reported in PubChem BioAssay (NCI).
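In this assay, cells in 96-well plates receive the compound at five concentrations for 48 hours. Endpoints are linearly interpolated between the surrounding concentrations. TGI marks complete inhibition of growth.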

Key:
Experiment in all cases: inhibition of tumour cell growth, NCI panel, 48 h
A498 renal = test system: A498 renal
HOP-62 NSCLC = test system: HOP-62 NSCLC
LOX IMVI melanoma = test system: LOX IMVI melanoma
U251 CNS = test system: U251 CNS
M19-MEL melanoma = test system: M19-MEL melanoma
SK-MEL-2 melanoma = test system: SK-MEL-2 melanoma
A549 NSCLC = test system: A549 NSCLC
DLD-1 colon = test system: DLD-1 colon
OVCAR-4 ovarian = test system: OVCAR-4 ovarian
CAKI-1 renal = test system: CAKI-1 renal
HL-60(TB) leukemia = test system: HL-60(TB) leukemia
NCI-H460 lung = test system: NCI-H460 lung
NCI-H23 lung = test system: NCI-H23 lung
IGROV1 ovarian = test system: IGROV1 ovarian
COLO 205 colon = test system: COLO 205 colon
HOP-92 NSCLC = test system: HOP-92 NSCLC
RPMI-8226 leukemia = test system: RPMI-8226 leukemia
DMS 114 small cell lung = test system: DMS 114 small cell lung
OVCAR-3 ovarian = test system: OVCAR-3 ovarian
HCT-15 colon = test system: HCT-15 colon
SK-MEL-28 melanoma = test system: SK-MEL-28 melanoma
786-0 renal = test system: 786-0 renal
LXFL 529 NSCLC = test system: LXFL 529 NSCLC
KM12 colon = test system: KM12 colon
HOP-18 NSCLC = test system: HOP-18 NSCLC
SNB-19 CNS = test system: SNB-19 CNS
SF-268 CNS = test system: SF-268 CNS
OVCAR-5 ovarian = test system: OVCAR-5 ovarian
K-562 leukemia = test system: K-562 leukemia
UACC-62 melanoma = test system: UACC-62 melanoma
NCI-H522 lung = test system: NCI-H522 lung
CCRF-CEM leukemia = test system: CCRF-CEM leukemia
SF-539 CNS = test system: SF-539 CNS
M14 melanoma = test system: M14 melanoma
SF-295 CNS = test system: SF-295 CNS
HCC-2998 colon = test system: HCC-2998 colon
HT29 colon = test system: HT29 colon
MALME-3M melanoma = test system: MALME-3M melanoma
EKVX NSCLC = test system: EKVX NSCLC
XF 498 CNS = test system: XF 498 CNS
DMS 273 small cell lung = test system: DMS 273 small cell lung
SN12C renal = test system: SN12C renal
TK-10 renal = test system: TK-10 renal
MOLT-4 leukemia = test system: MOLT-4 leukemia
SK-MEL-5 melanoma = test system: SK-MEL-5 melanoma
HCT-116 colon = test system: HCT-116 colon
SW-620 colon = test system: SW-620 colon
SNB-75 CNS = test system: SNB-75 CNS
OVCAR-8 ovarian = test system: OVCAR-8 ovarian
SK-OV-3 ovarian = test system: SK-OV-3 ovarian
ACHN renal = test system: ACHN renal
NCI-H226 lung = test system: NCI-H226 lung
KM20L2 colon = test system: KM20L2 colon
SR leukemia = test system: SR leukemia
UACC-257 melanoma = test system: UACC-257 melanoma
UO-31 renal = test system: UO-31 renal
RXF 393 renal = test system: RXF 393 renal
SNB-78 CNS = test system: SNB-78 CNS

Measured: TGI

O=C(O)Cc1cc(=O)oc2cc(O)c(Cl)cc12
not listed: SR leukemia | UACC-257 melanoma | UO-31 renal | RXF 393 renal | SNB-78 CNS
> 100 µM: all other assays above

CSC(=S)N(C)c1nc(=[N+](C)C)ss1
not listed: LOX IMVI melanoma | COLO 205 colon | OVCAR-3 ovarian
> 100 µM: all other assays above

COc1ccc(CCN2CCC(C#N)(c3ccc(OC)c(OC)c3)CC2)cc1OC
not listed: A498 renal | CAKI-1 renal | SNB-78 CNS
> 100 µM: all other assays above

Cc1cc2c(cn1)C(=O)OCC2
not listed: SK-MEL-2 melanoma | CAKI-1 renal | COLO 205 colon | HOP-92 NSCLC | HCT-15 colon | NCI-H522 lung | DMS 273 small cell lung | SK-MEL-5 melanoma
> 100 µM: all other assays above
